Among the data in patent US9840481B2, “Allosteric modulators of nicotinic acetylcholine receptors” (MERCK SHARP & DOHME CORP., priority 2016, dated 2017) are EC50 values, retold here.

The target of this assay is T1, human α7 nAChR stably expressed in a HEK cell line (with human RIC-3) (Homo sapiens, UniProt P36544).
T1 construct: PrecisION hnAChR α7/RIC-3
Nature of the assay: Automated patch-clamp electrophysiology functional assay (Assay A), IonFlux HT, whole-cell population patch. The assay is classed as cell-based. The method, boiled down: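 Whole-cell population patch clamp (IonFlux HT) used HEK cells stably co-expressing human α7 and RIC-3, held at −60 mV at room temperature. Compounds were applied alone (agonism) or with 40 μM acetylcholine (potentiation), three ascending concentrations per recording. Currents were quantified relative to a 40 μM acetylcholine reference response, giving EC50.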
A general note: In patch-clamp work, channel activity is measured electrically.

Setting [1] is: automated patch-clamp electrophysiology functional assay (Assay A), potency class by EC50, read-out: α7 nAChR Potency.
The mark [2] stands for this setting: electrophysiology EC50, HEK cells expressing human α7/RIC-3, 40 μM acetylcholine, holding potential −60 mV, room temperature, read-out: α7 nAChR EC50.

Read-outs that look alike come from different tables or passages of the source.

T1 sequence (P36544 23-502): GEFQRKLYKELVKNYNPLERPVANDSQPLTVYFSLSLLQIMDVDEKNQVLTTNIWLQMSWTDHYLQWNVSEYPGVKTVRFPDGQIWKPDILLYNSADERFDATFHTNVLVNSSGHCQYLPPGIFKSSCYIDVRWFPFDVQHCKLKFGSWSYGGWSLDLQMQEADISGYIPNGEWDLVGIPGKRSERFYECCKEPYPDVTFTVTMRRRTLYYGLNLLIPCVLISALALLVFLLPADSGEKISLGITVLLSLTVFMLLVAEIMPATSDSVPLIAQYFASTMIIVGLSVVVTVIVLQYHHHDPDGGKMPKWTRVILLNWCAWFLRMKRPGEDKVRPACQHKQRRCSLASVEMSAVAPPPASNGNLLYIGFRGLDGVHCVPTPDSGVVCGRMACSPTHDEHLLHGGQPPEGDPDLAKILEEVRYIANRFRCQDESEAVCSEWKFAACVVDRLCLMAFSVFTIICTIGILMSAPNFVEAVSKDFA

As for `CC(C)(C)c1noc([C@H]2[C@H](c3ccc(S(N)(=O)=O)cc3)C2(C)C)n1` [Example D10], the EC50 is 100 to 500 nM under setting [1] and 410 nM under setting [2].

Turning to `CC1(C)[C@@H](c2ccc(S(N)(=O)=O)cc2)[C@@H]1c1nc(-c2ccccc2F)co1` [Example K1], under setting [1], the EC50 is 100 to 500 nM.

On to `CC1(C)[C@@H](c2ccc(S(N)(=O)=O)cc2)[C@@H]1c1ncc(-c2ccccc2)s1` [Example 17, 4-[(1S,3S)-2,2-Dimethyl-3-(5-phenyl-1,3-thiazol-2-yl)cyclopropyl]benzenesulfonamide], for which the EC50 is, setting by setting: under setting [1], 500 to 5000 nM; under setting [2], 2000 nM.

Take `CC1(C)[C@@H](c2ccc(S(N)(=O)=O)cc2)[C@@H]1c1noc(-c2cscn2)n1` [Example I6]: under setting [1], the EC50 is 500 to 5000 nM.

`CC1(C)[C@@H](c2ccc(S(N)(=O)=O)cc2)[C@@H]1c1noc(-c2nc(-c3ccc(F)cc3)c[nH]2)n1` [Example I17]: the EC50 under setting [1] lay in the range of 500 to 5000 nM.

In the case of `CC(C)c1noc([C@@H]2[C@@H](c3ccc(S(N)(=O)=O)cc3)C2(F)F)n1` [Example 7, 4-{(1S,3S)-2,2-Difluoro-3-[3-(propan-2-yl)-1,2,4-oxadiazol-5-yl]cyclopropyl}benzenesulfonamide], the EC50 is, setting by setting: under setting [1], 500 to 5000 nM; under setting [2], 910 nM.

For the compound `Cc1ncccc1-c1noc([C@H]2C[C@@H]2c2ccc(S(N)(=O)=O)cc2)n1` [Example B6], the EC50 is 5000 to 50000 nM under setting [1] and 7700 nM under setting [2].

With `CC1(C)[C@@H](c2ccc(S(N)(=O)=O)cc2)[C@@H]1c1noc(C2CCc3cc(F)ccc32)n1` (some centres unmarked) [Example I3], the EC50 is, setting by setting: under setting [1], at most 100 nM; under setting [2], 96 nM.

As to `NS(=O)(=O)c1ccc([C@@H]2C[C@H]2c2ncc(C3CC3)o2)cc1` [Example K5], the EC50 was 100 to 500 nM under setting [1] and 350 nM under setting [2].

`CC1(C)[C@H](c2ccc(S(N)(=O)=O)cc2)[C@H]1c1nc(-c2ccccc2C(F)(F)F)no1` [Example A13]: the EC50 under setting [1] was 500 to 5000 nM.

As for `CC(C)c1noc([C@H]2[C@H](c3ccc(S(N)(=O)=O)cc3)C2(C)C)n1` [Example D5], the EC50 is, setting by setting: under setting [1], 100 to 500 nM; under setting [2], 420 nM.

Turning to `CC1(C)[C@@H](c2ccc(S(N)(=O)=O)cc2)[C@@H]1c1nc(-c2ccccn2)no1` [Example D4], the EC50 reads like this: under setting [1], 5000 to 50000 nM; under setting [2], 6800 nM.

`CC1(C)C(c2ccc(S(N)(=O)=O)c(F)c2)C1c1nc(-c2ccccc2)no1` (single isomer, unassigned; enantiomer a) [Example 32, 4-[trans-2,2-Dimethyl-3-(3-phenyl-1,2,4-oxadiazol-5-yl)cyclopropyl]-2-fluorobenzenesulfonamide, enantiomer A]: the EC50 by setting is: under setting [1], 500 to 5000 nM; under setting [2], 860 nM.

Consider `NS(=O)(=O)c1ccc([C@@H]2C[C@H]2c2csc(C3CCCC3)n2)cc1` [Example L14], for which, under setting [1], the EC50 was 500 to 5000 nM.

For the compound `CC1(C)[C@@H](c2ccc(S(N)(=O)=O)cc2)[C@@H]1c1noc(C2CC(O)C2)n1` (some centres unmarked) [Example I30], the EC50 is 500 to 5000 nM under setting [1] and 3800 nM under setting [2].

As for `CC1(C)[C@@H](c2ccc(S(N)(=O)=O)cc2)[C@@H]1c1nnc(-c2cc(F)ccc2C(F)(F)F)o1` [Example G6], the EC50 under setting [1] lay within 500 to 5000 nM and the EC50 under setting [2] was determined as 1100 nM.

With `NS(=O)(=O)c1ccc([C@@H]2[C@@H](c3nsc(-c4ccccc4)n3)C2(F)F)cc1` [Example L13], the EC50 under setting [1] lay within 500 to 5000 nM and the EC50 under setting [2] was determined as 740 nM.

With `CC1(C)[C@@H](c2ccc(S(N)(=O)=O)cc2)[C@@H]1c1noc(C2CCCC2)n1` [Example I26], the EC50 reads like this: under setting [1], at most 100 nM; under setting [2], 64 nM.

As to `CC1(C)[C@@H](c2ccc(S(N)(=O)=O)cc2)[C@@H]1c1noc(-c2ccc(C#N)cc2)n1` [Example H12], the EC50 is 500 to 5000 nM under setting [1] and 1200 nM under setting [2].

Turning to `CC(=O)N1CCC(c2noc([C@@H]3[C@@H](c4ccc(S(N)(=O)=O)cc4)C3(C)C)n2)CC1` [Example B16], the EC50 is, setting by setting: under setting [1], 500 to 5000 nM; under setting [2], 2200 nM.
